Reference: US7875621B2, “Substituted 2-alkyl quinazolinone derivatives as PARP inhibitors” (Janssen Pharmaceutica NV, priority 2004, dated 2011)
Where two headings read alike, the source gives them in different places.

How the values were obtained:
TANK-2 enzyme = target: T1, TANK-2 enzyme (Homo sapiens, UniProt Q9H2K2); experiment: In vitro scintillation proximity assay (SPA) for TANK-2 inhibitory activity; format: biochemical
T1 construct: inferred from capture on Ni-coated flash plate; made in house
T1 sequence (Q9H2K2 1-1166): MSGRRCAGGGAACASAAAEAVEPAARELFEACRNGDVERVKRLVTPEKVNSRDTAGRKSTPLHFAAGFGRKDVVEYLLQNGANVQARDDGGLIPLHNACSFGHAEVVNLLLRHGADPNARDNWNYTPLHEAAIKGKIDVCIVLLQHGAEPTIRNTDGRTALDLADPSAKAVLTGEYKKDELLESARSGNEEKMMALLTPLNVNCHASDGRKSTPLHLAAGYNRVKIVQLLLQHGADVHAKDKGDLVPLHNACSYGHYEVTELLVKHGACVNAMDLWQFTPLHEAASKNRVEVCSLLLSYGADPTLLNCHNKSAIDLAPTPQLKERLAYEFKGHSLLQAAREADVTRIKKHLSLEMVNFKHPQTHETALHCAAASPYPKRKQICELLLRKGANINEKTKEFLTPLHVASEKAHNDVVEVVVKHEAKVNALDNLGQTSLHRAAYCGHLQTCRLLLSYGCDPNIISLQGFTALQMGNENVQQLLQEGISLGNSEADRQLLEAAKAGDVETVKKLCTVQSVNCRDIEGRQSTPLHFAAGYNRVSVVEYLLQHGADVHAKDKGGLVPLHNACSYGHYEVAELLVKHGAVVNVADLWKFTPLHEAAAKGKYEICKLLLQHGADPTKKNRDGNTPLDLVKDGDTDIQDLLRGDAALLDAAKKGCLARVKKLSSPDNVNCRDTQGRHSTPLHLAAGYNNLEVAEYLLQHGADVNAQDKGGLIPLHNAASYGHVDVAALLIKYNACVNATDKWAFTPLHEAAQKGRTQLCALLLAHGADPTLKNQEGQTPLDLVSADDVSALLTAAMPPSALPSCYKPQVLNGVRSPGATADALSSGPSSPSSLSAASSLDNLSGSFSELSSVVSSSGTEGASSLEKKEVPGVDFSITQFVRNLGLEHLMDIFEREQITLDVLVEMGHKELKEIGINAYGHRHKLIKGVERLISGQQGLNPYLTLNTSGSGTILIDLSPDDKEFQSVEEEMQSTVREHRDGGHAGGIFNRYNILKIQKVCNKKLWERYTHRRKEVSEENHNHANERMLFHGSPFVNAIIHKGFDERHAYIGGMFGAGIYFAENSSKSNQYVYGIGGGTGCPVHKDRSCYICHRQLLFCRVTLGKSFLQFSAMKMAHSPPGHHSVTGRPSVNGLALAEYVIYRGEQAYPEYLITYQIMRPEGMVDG
Protocol: In Vitro Scintillation Proximity Assay (SPA) for TANK-2 Inhibitory Activity
Compounds of the present invention were tested in an in vitro assay based on SPA technology with Ni Flash plates (96 or 384 well).
In principle, the assay relies upon SPA technology for the detection of auto-poly(ADP-ribosyl)ation of TANK-2 protein using [^3H]-nicotinamide adenine dinucleotide ([^3H]-NAD^+) as ADP-ribosyl donor.
A stock solution of [^3H]-NAD^+/NAD was made by adding 64.6 μl of [^3H]-NAD^+ (0.1 mCi/ml, supplier: Perkin Elmer) and 46.7 μl NAD-stock (10.7 mM, stored at −20° C., supplier Roche) to 1888.7 μl assay buffer (60 mM Tris/HCl, pH 7.4; 0.9 mM DTT; 6 mM MgCl2). The TANK-2 enzyme was produced as described in EP1238063. 60 μl of assay buffer, together with 1 μl of compound in DMSO, 20 μl of [^3H]-NAD^+/NAD and 20 μl of TANK-2 enzyme (final concentration 6 μg/ml) was added per well into a 96-well Ni-coated flash plate (Perkin Elmer). After incubation of the mixture for 120 min. at room temperature, the reaction was terminated by adding 60 μl of stopsolution (42.6 mg NAD in 6 ml H2O). The plates were covered with a plate sealer and placed in a TopCountNXT™ (Packard) for scintillation counting. Values were expressed as counts per minute (cpm). For each experiment, controls (containing TANK-2 enzyme and DMSO without compound), a blank incubation (containing DMSO but no TANK-2 enzyme or compound) and samples (containing TANK-2 enzyme and compound dissolved in DMSO) were run in parallel. All compounds tested were dissolved and eventually further diluted in DMSO. In first instance, compounds were tested at a concentration of 10^−5M. […] In each test, the blank value was subtracted from both the control and the sample values. The control sample represented maximal TANK-2 enzyme activity. For each sample, the amount of cpm was expressed as a percentage of the mean cpm value of the controls. When appropriate, IC50-values (concentration of the drug, needed to reduce the TANK-2 enzyme activity to 50% of the control) were computed using linear interpolation between the experimental points just above and below the 50% level. Herein the effects of test compounds are expressed as pIC50 (the negative log value of the IC50-value). As reference compounds, 3-aminobenzamide and 4-amino-1,8-naphtalimide were included to validate the SPA assay. Herein the assay was described using 96-well plates. In the assay using 384-well plates the same final concentrations were used and volumes were adapted.

[1] = auto-poly(ADP-ribosyl)ation, [3H]-NAD+, 96- or 384-well Ni Flash plates, read-out: in vitro SPA TANK-2 pIC50 (converted)

Compound | IC50 (TANK-2 enzyme; [1]) [µM] | IC50 (TANK-2 enzyme) [µM] | melting point [°C]
NC(=O)C1(N2CCOCC2)CCN(CCCc2nc3ccccc3c(=O)[nH]2)CC1 [Compound 11] | > 10 |  | 
O=C(NC1CCN(CCCc2nc3ccccc3c(=O)[nH]2)CC1)c1ccccc1 [Compound 12] | > 10 |  | 
O=C1NCN(c2ccccc2)C12CCN(CCCc1nc3ccccc3c(=O)[nH]1)CC2 [Compound 2] | > 10 |  | 
O=C1NC(CCN2CCC(n3c(=O)[nH]c4ccccc43)CC2)Nc2ccccc21 (stereo not drawn) [Compound 13] |  | 0.938 | 
O=C(c1ccc(F)cc1)C1CCN(CCCc2nc3ccccc3c(=O)[nH]2)CC1 [Compound 14] | > 10 |  | 
O=C(NC1CCN(CCCC2NC(=O)c3ccccc3N2)CC1)c1ccccc1 (stereo not drawn) [Compound 8] | > 10 |  | 
NC(=O)C1(c2ccccc2)CCN(CCCC2NC(=O)c3ccccc3N2)CC1 (stereo not drawn) [Compound 5] | > 10 |  | 216.1
O=C(c1ccc(F)cc1)C1CCN(CCc2nc3ccccc3c(=O)[nH]2)CC1 [Compound 9] | > 10 |  | 
O=C(CC1CCN(CCc2nc3ccccc3c(=O)[nH]2)CC1)c1ccc(F)cc1 [Compound 3] | 2.48 |  | 159.1
NC(=O)C1(c2ccccc2)CCN(CCCc2nc3ccccc3c(=O)[nH]2)CC1 [Compound 4] | > 10 |  | 138.9
O=C1NC(CCCN2CCC(n3c(=O)[nH]c4ccccc43)CC2)Nc2ccccc21 (stereo not drawn) [Compound 7] | < 10 |  | 
O=C1NC(CCN2CCC3(CC2)C(=O)NCN3c2ccccc2)Nc2ccccc21 (stereo not drawn) [Compound 6] | 7.43 |  | 
